Results on 13 compounds are retold here after PubChem BioAssay AID330 (DTP/NCI, 2004).

Where “and” joins values, the source holds several entries; their conditions need not be identical. Equal values may be shown once. Inconclusive results and toxic doses are left out. Peptide text beside a SMILES is read from it. * marks the point of attachment. Cbz = O=C(OCc1ccccc1)*; OBn = c1ccc(CO*)cc1

For this experiment, the system named is P388 leukemia ip, CD2F1 mice, survival T/C. As to the kind of experiment: NCI In Vivo Anticancer Drug Screen. Data for tumor model P388 Leukemia (intraperitoneal) in CD2F1 (CDF1) mice. Particulars: endpoint: median survival time, higher = longer survival. An outline of the steps: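 Mice carrying the transplanted tumor received test compound or vehicle. Survival was recorded in each group, and the value is the treated-group measurement divided by that of the vehicle-treated control group.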

The mark [1] stands for this setting: dose: 50.0 mg/kg/injection, schedule: Q01DX005 (ip), vehicle: Klucel (hydroxypropylcellulose) (HPC).
The mark [2] stands for this setting: dose: 100.0 mg/kg/injection, schedule: Q01DX005 (ip), vehicle: Klucel (hydroxypropylcellulose) (HPC).
Where [3] appears, read: dose: 200.0 mg/kg/injection, schedule: Q01DX005 (ip), vehicle: Klucel (hydroxypropylcellulose) (HPC).

On to `CCO/C=C1/N=C(c2ccc3ccccc3c2)OC1=O`, for which the T/C was 101 % of control (dose: 60.0 mg/kg/injection, schedule: Q01DX005 (ip), vehicle: saline + Tween-80 + alcohol); 100 % of control (dose: 120.0 mg/kg/injection, schedule: Q01DX005 (ip), vehicle: saline + Tween-80 + alcohol); 86 % of control (dose: 240.0 mg/kg/injection, schedule: Q01DX005 (ip), vehicle: saline + Tween-80 + alcohol).
Consider `CCCCB1OB(CCCC)OB(CCCC)O1`, for which the T/C runs as follows: (dose: 50.0 mg/kg/injection, schedule: Q01DX009 (ip), vehicle: saline with Tween-80) 92 % of control; (dose: 100.0 mg/kg/injection, schedule: Q01DX009 (ip), vehicle: saline with Tween-80) 105 % of control; (dose: 200.0 mg/kg/injection, schedule: Q01DX009 (ip), vehicle: saline with Tween-80) 105 % of control.
For `CC(C)C(NC(=O)C(Cc1ccccc1)NC(=O)OCc1ccccc1)C(=O)OCc1ccccc1` (stereo not drawn) (Cbz-Phe-Val-OBn; configuration not given here), the T/C reads like this: (dose: 12.5 mg/kg/injection, schedule: Q01DX005 (ip), vehicle: saline with Tween-80) 93 % of control; (dose: 25.0 mg/kg/injection, schedule: Q01DX005 (ip), vehicle: saline with Tween-80) 100 % of control; (dose: 50.0 mg/kg/injection, schedule: Q01DX005 (ip), vehicle: saline with Tween-80) 91 % of control and 97 % of control; (dose: 200.0 mg/kg/injection, schedule: Q01DX005 (ip), vehicle: saline with Tween-80) 92 % of control.
Regarding `CC1CCC(C(C)C)C(NC(=O)c2cccnc2)C1` (stereo not given), the T/C was 102 % of control (dose: 25.0 mg/kg/injection, schedule: Q04DX002 (ip), vehicle: Klucel (hydroxypropylcellulose) (HPC)); 101 % of control (dose: 52.0 mg/kg/injection, schedule: Q04DX002 (ip), vehicle: Klucel (hydroxypropylcellulose) (HPC)); 100 % of control (dose: 100.0 mg/kg/injection, schedule: Q04DX002 (ip), vehicle: Klucel (hydroxypropylcellulose) (HPC)); 103 % of control (dose: 200.0 mg/kg/injection, schedule: Q04DX002 (ip), vehicle: Klucel (hydroxypropylcellulose) (HPC)).
Take `CCC[C@H]1[C@H](CCC)[C@@]2(OC(=O)C3=C2CCC=C3)[C@]12OC(=O)C1=C2CCC=C1`: the T/C (dose: 11.25 mg/kg/injection, schedule: Q01DX005 (ip), vehicle: Klucel (hydroxypropylcellulose) (HPC)) is 98 % of control; the T/C (dose: 22.5 mg/kg/injection, schedule: Q01DX005 (ip), vehicle: Klucel (hydroxypropylcellulose) (HPC)) is 90 % of control; the T/C (dose: 45.0 mg/kg/injection, schedule: Q01DX005 (ip), vehicle: Klucel (hydroxypropylcellulose) (HPC)) is 88 % of control; the T/C (dose: 90.0 mg/kg/injection, schedule: Q01DX005 (ip), vehicle: Klucel (hydroxypropylcellulose) (HPC)) is 100 % of control.
Consider `COc1ccc(N(C)C(=S)c2ccccc2)cc1`, for which the T/C reads like this: under setting [1], 103 % of control; under setting [2], 96 % of control; under setting [3], 92 % of control.
Consider `CCCCN(CCCC)CC(CN(CC)CC)N(CC)C(=O)Nc1ccccc1` (stereo not given), for which the T/C runs as follows: (dose: 12.5 mg/kg/injection, schedule: Q01DX005 (ip), vehicle: saline) 94 % of control; (dose: 25.0 mg/kg/injection, schedule: Q01DX005 (ip), vehicle: saline) 93 % of control; (dose: 50.0 mg/kg/injection, schedule: Q01DX005 (ip), vehicle: saline) 102 % of control and 94 % of control.
Turning to `c1ccc(SCCC(Sc2ccccc2)Sc2ccccc2)cc1`, the T/C reads like this: (dose: 50.0 mg/kg/injection, schedule: Q01DX009 (ip), vehicle: saline) 100 % of control; (dose: 100.0 mg/kg/injection, schedule: Q01DX009 (ip), vehicle: saline) 106 % of control; (dose: 200.0 mg/kg/injection, schedule: Q01DX009 (ip), vehicle: saline) 106 % of control.
In the case of `COC(=O)Nc1nc2ccccc2[nH]1`, the T/C (dose: 20.0 mg/kg/injection, schedule: Q04DX003 (ip), vehicle: other) is 101 % of control; the T/C (dose: 20.0 mg/kg/injection, schedule: Q04DX003 (oral), vehicle: other) is 100 % of control; the T/C (dose: 40.0 mg/kg/injection, schedule: Q04DX003 (ip), vehicle: other) was 100 % of control; the T/C (dose: 40.0 mg/kg/injection, schedule: Q04DX003 (oral), vehicle: other) is 101 % of control; the T/C (dose: 80.0 mg/kg/injection, schedule: Q04DX003 (ip), vehicle: other) is 101 % of control; the T/C (dose: 80.0 mg/kg/injection, schedule: Q04DX003 (oral), vehicle: other) was 101 % of control. The T/C reads like this: (dose: 160.0 mg/kg/injection, schedule: Q04DX003 (ip), vehicle: other) 107 % of control; (dose: 160.0 mg/kg/injection, schedule: Q04DX003 (oral), vehicle: other) 105 % of control; (dose: 320.0 mg/kg/injection, schedule: Q04DX003 (ip), vehicle: other) 102 % of control; (dose: 320.0 mg/kg/injection, schedule: Q04DX003 (oral), vehicle: other) 100 % of control; (dose: 640.0 mg/kg/injection, schedule: Q04DX003 (ip), vehicle: other) 111 % of control; (dose: 640.0 mg/kg/injection, schedule: Q04DX003 (oral), vehicle: other) 102 % of control.
For `CCC[CH2][Sn]([CH2]CCC)([CH2]CCC)[CH2]CC[N+](C)(C)C`, the T/C reads like this: (dose: 0.78 mg/kg/injection, schedule: Q01DX009 (ip), vehicle: saline) 105 % of control; (dose: 1.56 mg/kg/injection, schedule: Q01DX009 (ip), vehicle: saline) 105 % of control; (dose: 3.12 mg/kg/injection, schedule: Q01DX009 (ip), vehicle: saline) 101 % of control.
With `CCCCCCCC/C=C\CCCCCCCCCCCC(=O)O`, the T/C is 100 % of control (dose: 50.0 mg/kg/injection, schedule: Q01DX009 (ip), vehicle: Klucel (hydroxypropylcellulose) (HPC)); 100 % of control (dose: 50.0 mg/kg/injection, schedule: Q01DX009 (ip), vehicle: other); 92 % of control (dose: 100.0 mg/kg/injection, schedule: Q01DX009 (ip), vehicle: Klucel (hydroxypropylcellulose) (HPC)); 106 % of control (dose: 100.0 mg/kg/injection, schedule: Q01DX009 (ip), vehicle: other); 91 % of control (dose: 200.0 mg/kg/injection, schedule: Q01DX009 (ip), vehicle: Klucel (hydroxypropylcellulose) (HPC)); 102 % of control (dose: 200.0 mg/kg/injection, schedule: Q01DX009 (ip), vehicle: other). The T/C (dose: 400.0 mg/kg/injection, schedule: Q01DX009 (ip), vehicle: Klucel (hydroxypropylcellulose) (HPC)) was 98 % of control and the T/C (dose: 400.0 mg/kg/injection, schedule: Q01DX009 (ip), vehicle: other) was 94 % of control.
Take `Cc1ccc(O)c(C(=NCCCCN=C(c2ccccc2)c2cc(C)ccc2O)c2ccccc2)c1`: the T/C reads like this: under setting [1], 99 % of control; under setting [2], 94 % of control; under setting [3], 99 % of control.
For `COc1cc2cc(c1Cl)N(C)C(=O)CC(OC(=O)C(C)N(C)C(=O)C(C)C)C1(C)OC1C(C)C1CC(O)(NC(=O)O1)C(OC)/C=C/C=C(C)C2OC` (stereo not given), the T/C was 157 % of control and 163 % of control (dose: 4.0 micrograms/kg/injection, schedule: Q01DX009 (ip), vehicle: Klucel (hydroxypropylcellulose) (HPC)); 108 % of control (dose: 4.0 micrograms/kg/injection, schedule: Q01DX009 (ip), vehicle: distilled water + alcohol); 168 % of control (dose: 8.0 micrograms/kg/injection, schedule: Q01DX009 (ip), vehicle: Klucel (hydroxypropylcellulose) (HPC)); 108 % of control and 115 % of control (dose: 8.0 micrograms/kg/injection, schedule: Q01DX009 (ip), vehicle: distilled water + alcohol); 157 % of control (dose: 15.5 micrograms/kg/injection, schedule: Q01DX009 (ip), vehicle: none); 154 % of control (dose: 16.0 micrograms/kg/injection, schedule: Q01DX009 (ip), vehicle: Klucel (hydroxypropylcellulose) (HPC)). Also, the T/C reads like this: (dose: 16.0 micrograms/kg/injection, schedule: Q01DX009 (ip), vehicle: distilled water + alcohol) 100 % of control and 123 % of control; (dose: 31.0 micrograms/kg/injection, schedule: Q01DX009 (ip), vehicle: none) 150 % of control; (dose: 32.0 micrograms/kg/injection, schedule: Q01DX009 (ip), vehicle: distilled water + alcohol) 100 % of control; (dose: 64.0 micrograms/kg/injection, schedule: Q01DX009 (ip), vehicle: Klucel (hydroxypropylcellulose) (HPC)) 91 % of control; (dose: 64.0 micrograms/kg/injection, schedule: Q01DX009 (ip), vehicle: distilled water + alcohol) 100 % of control; (dose: 128.0 micrograms/kg/injection, schedule: Q01DX009 (ip), vehicle: distilled water + alcohol) 106 % of control.
